# Measurements as given in PMC9929129, “Towards Translation of PqsR Inverse Agonists: From In Vitro Efficacy Optimization to In Vivo Proof‐of‐Principle” (Advanced Science, 2023).
# Read-outs that look alike come from different tables or passages of the source.
# Legend:
# [1] = system: Bronchiectasis clinical isolates, PA14 and PAO1; test: Antimicrobial minimal inhibitory concentrations (MIC), microdilution
# PqsR = biological target: T1, PqsR (Pseudomonas aeruginosa, UniProt Q9I4X0); conditions: cited from earlier work
# T1 construct: expressed in transfected cells; host or cells: Escherichia coli DH5α with plasmid pEAL08-2
# [2] = system: Pseudomonas aeruginosa PA14; parameters: method as in PMID 31709767; conditions: previously published hit; read-out: IC50 Pyocyanin; cited from earlier work
# [3] = system: Pseudomonas aeruginosa PA14; test: Pyocyanin assay in Pseudomonas aeruginosa; assay type: cell-based; conditions: PA14, 16 h, read-out: IC50 Pyocyanin
# Procedure: 1.2.2 Pyocyanin assay in Pseudomonas aeruginosa
# Inhibition of pyocyanin biosynthesis of compounds was measured spectrophotometrically as previously described.[2] Pseudomonas aeruginosa PA14 was grown in rich medium for 16 h under agitation with and without compound. Pyocyanin was extracted from cultures with chloroform, then re-extracted with 0.2 M HCl and quantified photometrically (520 nm). IC50 values were determined from dose-response curves of compounds using at least six different concentrations and fitting with non-linear regression analysis (OriginPro 2017–2020, Originlab Corporation). […]
# [4] = Kinetic turbidimetric aqueous solubility; conditions: PBS buffer, kinetic from dmso stock
# [5] = Metabolic stability in mouse liver microsomes (MLM)
# Procedure: 1.3.2 Metabolic-Stability Tests in Mouse Liver Microsomes (MLM).
# Phase I metabolic stability was evaluated by incubating the compound (1 μM) with 0.5 mg/mL MLM (Corning) and 1 mM NADPH at 37 °C for 0, 5, 10, 15 and 30 min. The enzymatic activity of the MLM was determined by measuring the metabolic stability of Verapamil, Diphenhydramine and Benzydamine (1 μM each).
# The half-life (t1/2) was determined by analyzing the concentrations of the compounds at the different time points by HPLC-MS/MS.
# [6] = strain column 1 of 16 (strain heads not assignable)
# T1 sequence (Q9I4X0 whole entry): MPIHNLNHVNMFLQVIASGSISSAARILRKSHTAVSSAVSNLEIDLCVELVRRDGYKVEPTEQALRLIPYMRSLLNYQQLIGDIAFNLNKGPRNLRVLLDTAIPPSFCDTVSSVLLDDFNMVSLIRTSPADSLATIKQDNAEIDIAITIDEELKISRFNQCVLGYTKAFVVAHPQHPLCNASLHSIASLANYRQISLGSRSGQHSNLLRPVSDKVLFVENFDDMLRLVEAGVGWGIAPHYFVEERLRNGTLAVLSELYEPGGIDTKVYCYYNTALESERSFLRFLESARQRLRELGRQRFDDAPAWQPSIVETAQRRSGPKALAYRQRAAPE
Compound,IC50 [3] [nM],solubility kinetic at 5 min [4] [µM],half-life at 1 μM [5] [min],further results
CC(C)(O/N=C(\C(=O)N[C@@H]1C(=O)N2C(C(=O)[O-])=C(C[n+]3ccccc3)CS[C@H]12)c1csc(N)n1)C(=O)O [Ceftazidim],–,–,–,"MIC [1, 6]: 2 µg/mL; MIC ([1]; strain column 2 of 16): 4 µg/mL; MIC ([1]; strain column 3 of 16): 2 µg/mL; MIC ([1]; strain column 4 of 16): ≤ 0.5 µg/mL; MIC ([1]; strain column 5 of 16): 2 µg/mL; MIC ([1]; strain column 6 of 16): 1 µg/mL; MIC ([1]; strain column 7 of 16): ≤ 0.5 µg/mL; MIC ([1]; strain column 8 of 16): 4 µg/mL; MIC ([1]; strain column 9 of 16): ≤ 0.5 µg/mL; MIC ([1]; strain column 10 of 16): 16 µg/mL; MIC ([1]; strain column 11 of 16): ≤ 0.5 µg/mL; MIC ([1]; strain column 12 of 16): 2 µg/mL; MIC ([1]; strain column 13 of 16): ≤ 0.5 µg/mL; MIC ([1]; strain column 14 of 16): 4 µg/mL; MIC ([1]; strain column 15 of 16): 4 µg/mL; MIC ([1]; strain column 16 of 16): 2 µg/mL"
Nc1cc(NCc2ccc(F)cc2)cc(C(F)(F)F)n1 [Compound 1],–,–,–,"IC50 (PqsR; read-out: IC50 PqsR, previously published hit): 2310 nM; IC50 (PqsR; read-out: IC50 toward PqsR in heterologous lacZ reporter gene assay in E. coli): 2300 nM; IC50 [2]: 107000 nM"
Fc1ccc(CNc2ccnc(C(F)(F)F)c2)cc1 [Compound 2],176000 ± 47400,> 200,54,–
FC(F)(F)c1cc(NCc2ccc(Cl)cc2)ccn1 [Compound 3],19000 ± 1200,> 200,44,–
FC(F)(F)c1cc(NCc2ccc(Br)cc2)ccn1 [Compound 4],14400 ± 1600,> 200,61,–
FC(F)(F)c1cc(NCc2cccc(Br)c2)ccn1 [Compound 5],71400 ± 27200,> 200,20,–
FC(F)(F)c1cc(NCc2ccccc2Br)ccn1 [Compound 6],126000 ± 10600,> 200,4,–
FC(F)(F)c1cc(NCc2ccc(-c3ccc(Cl)cc3)cc2)ccn1 [Compound 7],449 ± 74,10,> 40,–
FC(F)(F)c1cc(NCc2ccc(-c3ccc(Cl)cc3)nc2)ccn1 [Compound 8],3300 ± 1300,38.9,50,–
FC(F)(F)c1cc(NCc2ccc(-c3ccc(Cl)cc3)cn2)ccn1 [Compound 9],2900 ± 3900,26.6,57,–
FC(F)(F)c1cc(NCc2ccc(-c3ccc(Cl)cn3)cn2)ccn1 [Compound 10],35100 ± 27500,> 200,75,–
FC(F)(F)c1cc(NCc2ccc(-c3ccc(Cl)nc3)cn2)ccn1 [Compound 11],7200 ± 4600,161,> 480,–
FC(F)(F)c1cc(OCc2ccc(-c3ccc(Cl)nc3)cn2)ccn1 [Compound 12],> 20000,48.1,74,–
FC(F)(F)c1cc(SCc2ccc(-c3ccc(Cl)nc3)cn2)ccn1 [Compound 13],3100 ± 900,42.3,6,–
COc1ccc(-c2ccc(CNc3ccnc(C(F)(F)F)c3)nc2)cn1 [Compound 14],2900 ± 800,> 200,77,–
Cc1cc(-c2ccc(CNc3ccnc(C(F)(F)F)c3)nc2)cnc1Cl [Compound 15],1900 ± 300,112,< 5,–
FC(F)(F)c1cc(NCc2ccc(-c3cnc(Cl)c(C(F)(F)F)c3)cn2)ccn1 [Compound 16],2100 ± 400,101,384,–
FC(F)(F)c1cc(NCc2ccc(-c3cnc(Cl)c(Cl)c3)cn2)ccn1 [Compound 17],802 ± 200,76.2,45,–
COc1ncc(-c2ccc(CNc3ccnc(C(F)(F)F)c3)nc2)cc1Cl [Compound 18],1500 ± 200,42.4,2,–
FC(F)(F)c1cc(NCc2ccc(-c3ccc(Oc4ccccc4)nc3)cn2)ccn1 [Compound 19],4200 ± 1100,25.6,35,–
FC(F)(F)c1cc(NCc2cnc(-c3ccc(Cl)c(Cl)c3)nc2)ccn1 [Compound 20],234 ± 57,16.6,61,–
FC(F)(F)c1cc(NCc2cnc(-c3ccc(Oc4ccccc4)cc3)nc2)ccn1 [Compound 21],320 ± 110,10.9,32,–
CC(C)Oc1ccc(-c2ncc(CNc3ccnc(C(F)(F)F)c3)cn2)cc1 [Compound 22],521 ± 300,41.7,> 85,–
FC(F)(F)c1cc(NCc2cnc(-c3ccc(C4CC4)cc3)nc2)ccn1 [Compound 23],591 ± 70,16.5,3,–
CC(C)Oc1ncc(-c2ncc(CNc3ccnc(C(F)(F)F)c3)cn2)cc1Cl [Compound 25],523 ± 50,37.9,> 480,–
Colistin,–,–,–,"MIC [1, 6]: 2 µg/mL; MIC ([1]; strain column 2 of 16): 2 µg/mL; MIC ([1]; strain column 3 of 16): 1 µg/mL; MIC ([1]; strain column 4 of 16): ≤ 0.5 µg/mL; MIC ([1]; strain column 5 of 16): 1 µg/mL; MIC ([1]; strain column 6 of 16): 2 µg/mL; MIC ([1]; strain column 7 of 16): 1 µg/mL; MIC ([1]; strain column 8 of 16): 2 µg/mL; MIC ([1]; strain column 9 of 16): 2 µg/mL; MIC ([1]; strain column 10 of 16): 1 µg/mL; MIC ([1]; strain column 11 of 16): 1 µg/mL; MIC ([1]; strain column 12 of 16): 2 µg/mL; MIC ([1]; strain column 13 of 16): 1 µg/mL; MIC ([1]; strain column 14 of 16): 1 µg/mL; MIC ([1]; strain column 15 of 16): 1 µg/mL; MIC ([1]; strain column 16 of 16): 2 µg/mL"
